In series [1] the test system is Human immunodeficiency virus 1. In words: Antiviral activity against HIV1 3B in MT2 cells. The series is classed as functional, organism-based. The following applies: Human immunodeficiency virus 1, 3B.
Series [2] in a line: Cytotoxicity against human MT2 cells. The class given is cell-based.

Where only a bound is given, the exact number is not on record here.

The EC50 is the midpoint of the concentration-response curve. A lower EC50 goes with an effect from little substance. In turn, `Nc1nc(N)c2ncn([C@@H]3O[C@H](OCP(=O)(O)O)C=C3F)c2n1` came in with an EC50 in series [1] of more than 300 µM. As usually defined, the CC50 is the concentration giving 50% cytotoxicity. A high value points to better tolerance by the cells. In the case of `Nc1nc2c(ncn2[C@@H]2O[C@H](OCP(=O)(O)O)C=C2F)c(=O)[nH]1`, in series [1], the EC50 came out at 17.4 µM. The compound further had a CC50 in series [2] of 700 µM. In turn, `Nc1ncnc2c1ncn2[C@@H]1O[C@H](OCP(=O)(O)O)C[C@@H]1F` showed a concentration giving a half-maximal response (EC50) in series [1] of 283 µM. The same compound yielded a cytotoxic concentration (CC50) in series [2] of more than 1000 µM. For the compound `O=c1[nH]cnc2c1ncn2[C@@H]1O[C@H](OCP(=O)(O)O)C=C1F`, in series [1], the concentration giving a half-maximal response (EC50) was more than 300 µM. Consider `Nc1ncnc2c1ncn2[C@@H]1O[C@H](OCP(=O)(O)O)C=C1F` [GS-9148], for which the EC50 in series [1] was determined as 12.3 µM. Moreover, the half-maximal cytotoxic concentration (CC50) in series [2] is more than 1000 µM. In turn, `C[C@H](Cn1cnc2c(N)ncnc21)OCP(=O)(O)O` [TENOFOVIR ANHYDROUS] returned a half-maximal effective concentration (EC50) in series [1] of 3.6 µM. Besides, the cytotoxic concentration (CC50) in series [2] was more than 1000 µM.

These data come from ChEMBL document CHEMBL1140817, “Synthesis and anti-HIV activity of 2'-fluorine modified nucleoside phosphonates: analogs of GS-9148” (Bioorg Med Chem Lett, 2008).
